Assay results from patent publication EP0400440B1, “Amino acid derivative anticonvulsant” (RESEARCH CORPORATION TECHNOLOGIES, INC., priority 1989, dated 1990).

Experiments:
[1] = test system: male Carworth Farms #1 mice; assay: Maximal electroshock seizure test (MES); format: in vivo; conditions: Mus musculus, maximal electroshock seizures
Text: (§1) Pharmacology. The following compounds were'tested for anticonvulsant activity using male Carworth Farms #1 mice: • N-Acetyl-D,L-alanine-N'-benzylamide • N-Acetyl-D-alanine-N'-benzylamide • N-Acetyl-L-alanine-N'-benzylamide • N-Acetyl-D,L-phenylglycine-N'-methylamide • N-Acetylglycine-N-benzylamide • N-Acetyl-D,L-valine-N-benzylamide • N-Acetyl-D,L-phenylglycine-N-benzylamide • N-Acetyl-D-phenylglycine-N-benzylamide • N-Acetyl-L-phenylglycine-N-benzylamide • N-Acetyl-D,L-alanine-N-(3-methoxy)benzylamide • N-Trimethylacetyl-D,L-alanine-N-benzylamide • N-Acetyl-D,L-methionine-N-benzylamide • N-Acetyl-D,L-alanine-N'-(3-fluoro)benzylamide • D,L-α-Acetamido-N-benzyl-3-thiopheneacetamide • D,L-α-Acetamido-N-benzyl-2-thiopheneacetamide • D,L-α-Acetamido-N-benzyl-2-furanacetamide • D,L-α-Acetamido-N-benzyl-2-pyrroleacetamide • D,L-2-Acetamido-N-benzyl-2-ethoxyacetamide • D,L-α-Acetamido-N-benzyl-2-(5-methylfuran)acetamide • D,L-α-Acetamido-N-benzyl-2-benzofuranacetamide • D,L-α-Acetamido-N-benzyl-2-benzo[b]thiopheneacetamide • D,L-α-Acetamido-N-benzyl-2-(5-methylpyrrole)acetamide • D,L-α-Acetamido-N-(2-fluorobenzyl)-2-furanacetamide • D,L-α-Acetamido-N-(3-fluorobenzyl)-2-furanacetamide • D,L-α-Acetamido-N-(4-fluorobenzyl)-2-furanacetamide • D,L-α-Acetamido-N-(2,5-difluorobenzyl)-2-furanacetamide • D,L-α-Acetamido-N-(2,6-difluorobenzyl)-2-furanacetamide • D-(-)-α-Acetamido-N-benzyl-2-furanacetamide • L-(+)-α-Acetamido-N-benzyl-2-furanacetamide • D,L-2-Acetamido-4-pentenoic acid-N-benzylamide • D,L-2-Acetamido-N-benzyl-2-(1-morpholine)acetamide (reference compound) • D,L-2-Acetamido-N-benzyl-2-(N-anilino)acetamide • D,L-2-Acetamido-N-benzyl-2-(methylamino)acetamide • D,L-2-Acetamido-N-benzyl-2-(ethylamino)acetamide • D,L-2-Acetamido-N-benzyl-3-indoleacetamide (reference compound)
(§2) N-Acetyl-D,L-alanine-N'-benzylamide was tested at […] as well. […] Maximal electroshock seizures (MES) were elicited with a 60 cycle alternating current of 50 mA intensity (5-7 times that necessary to elicit minimal electroshock seizures) delivered for 0.2 sec via corneal electrodes. A drop of 0.9% saline was instilled in the eye prior to application of the electrodes so as to prevent the death of the animal. Protection in this test was defined as as the abolition of the hind limb tonic extension component of the seizure. The Subcutaneous Pentylenetetrazole (Metrazol^R) Seizure Threshold Test (sc Met) entailed the administration of 85 mg/kg of pentylenetetrazole as a 0.5% solution subcutaneously in the posterior midline. […] Protection was defined as a failure to observe even a threshold seizure (a single episode of clonic spasms of at least 5 sec duration). The effects of the compounds on forced and spontaneous motor activity were evaluated in mice using the Rotorod Test (Tox) or, in some cases, as indicated herein, a horizontal screen assay (HS). The procedure for the rotorod test is described in J. Am. Pharm. Assoc., 46, 208-209 (1957). In the rotorod test, the animal was placed on a one-inch diameter knurled plastic rod rotating at 6 rpm after the administration of the drug. Normal mice can remain on a rod rotating at this speed indefinitely. Neurologic toxicity was defined as the failure of the animal to remain on the rod for one minute. In the horizontal screen test, previously trained mice were dosed with the compound and placed individually on top of a square (13 cm X 13 cm) wire screen (no. 4 mesh) which was mounted on a metal rod. The rod was rotated 180°, and the number of mice that returned to the top of the screen was determined. Inability to climb to the top within one minute was defined as "neurological impairment". This procedure is described in Pharmacol. Biochem. Behav. 6, 351-353 (1977).
(§3) The dose effect behavior of the compounds was evaluated using the above-described procedures by the administration of varying dose levels, treating normally eight mice at each dose. […]

[2] = Rotorod Test (Tox), neurologic toxicity; conditions: mouse, in vivo, mice, median toxic dose, 95% confidence intervals in brackets
Procedure: The effects of the compounds on forced and spontaneous motor activity were evaluated in mice using the Rotorod Test (Tox) or, in some cases, as indicated herein, a horizontal screen assay (HS). […] In the rotorod test, the animal was placed on a one-inch diameter knurled plastic rod rotating at 6 rpm after the administration of the drug. Normal mice can remain on a rod rotating at this speed indefinitely. Neurologic toxicity was defined as the failure of the animal to remain on the rod for one minute. In the horizontal screen test, previously trained mice were dosed with the compound and placed individually on top of a square (13 cm X 13 cm) wire screen (no. 4 mesh) which was mounted on a metal rod. The rod was rotated 180°, and the number of mice that returned to the top of the screen was determined. Inability to climb to the top within one minute was defined as "neurological impairment".

[3] = test system: male Carworth Farms #1 mice; assay: Subcutaneous Pentylenetetrazole (Metrazol) Seizure Threshold Test (sc Met); format: in vivo; conditions: 85 mg/kg pentylenetetrazole subcutaneously, 95% confidence intervals in brackets
Procedure: Pharmacology. […]
N-Acetyl-D,L-alanine-N'-benzylamide was tested at 600 mg/mL as well. […] The effects of the compounds on forced and spontaneous motor activity were evaluated in mice using the Rotorod Test (Tox) or, in some cases, as indicated herein, a horizontal screen assay (HS). […] The rod was rotated 180°, and the number of mice that returned to the top of the screen was determined. […]
as §3

[4] = Horizontal screen test (HS), neurological impairment; format: in vivo; conditions: mouse, in vivo; mice; determined using the horizontal screen test (footnote xx); 95% confidence intervals in brackets; read-out: Tox TD50
Text: as §1, §2, §3

[5] = test system: male Carworth Farms #1 mice; assay: as above; format: in vivo; conditions: determined using the horizontal screen test (footnote xx), 95% confidence intervals in brackets
Text: as §1, §2, §3

[6] = 50 mA, 0.2 sec, corneal electrodes, 95% confidence intervals in brackets

**Q.** For `CC(=O)NC(C(=O)NCc1ccccc1F)c1ccco1` (racemic) [(D,L)-α-Acetamido-N-(2-fluorobenzyl)-2-furanacetamide], which ED50 [1, 6] is on record?
**A.** Its ED50 is 40 mg/kg.

**Q.** For `CNC(NC(C)=O)C(=O)NCc1ccccc1` (racemic) [(D,L)-2-Acetamido-N-benzyl-2-(methylamino)acetamide], which TD50 [2] is on record?
**A.** Its TD50 is 95 mg/kg.

**Q.** What about the ED50 [1, 6] of the same compound?
**A.** Its ED50 is 44.5 mg/kg.

**Q.** For `O=C1NC(=O)C(c2ccccc2)(c2ccccc2)N1` [phenytoin], which “sc Met ED50” value [3] is on record?
**A.** The value was “not effective”.

**Q.** With `CC(=O)NC(Nc1ccccc1)C(=O)NCc1ccccc1` (racemic) [(D,L)-2-Acetamido-N-benzyl-2-(N-anilino)acetamide] as the compound, how does the ED50 ([1]; result given as footnote symbol) read?
**A.** The ED50 was no less than 300 mg/kg.

**Q.** Which TD50 [4] does the source give for `CC(=O)NC(C(=O)NCc1ccccc1)c1cc2ccccc2o1` (racemic) [(D,L)-α-Acetamido-N-benzyl-2-benzofuranacetamide] here?
**A.** The TD50 was 100 to 300 mg/kg.

**Q.** And the ED50 [1, 6]?
**A.** Its ED50 is 100 to 300 mg/kg.

**Q.** Which ED50 [1, 6] does the source give for `CC(=O)NC(C(=O)NCc1cc(F)ccc1F)c1ccco1` (racemic) [(D,L)-α-Acetamido-N-(2,5-fluorobenzyl)-2-furanacetamide] here?
**A.** Its ED50 is 23.8 mg/kg.

**Q.** Which TD50 [4] does the source give for `CC(=O)NC(C(=O)NCc1ccc(F)cc1)c1ccco1` (racemic) [(D,L)-α-Acetamido-N-(4-fluorobenzyl)-2-furanacetamide] here?
**A.** The TD50 was 144 mg/kg.

**Q.** What about the ED50 [1, 6] of the same compound?
**A.** Its ED50 is 12.7 mg/kg.

**Q.** What does the source list for `CC(=O)NC(C(=O)NCc1ccccc1)c1ccc(C)o1` (racemic) [(D,L)-α-Acetamido-N-benzyl-2-(5-methylfuran)acetamide]?
**A.** Tox TD50 [5]: 75.4^xx mg/kg; ED50 [1, 6]: 19.2 mg/kg

**Q.** With `CC(=O)NC(C(=O)NCc1c(F)cccc1F)c1ccco1` (racemic) [(D,L)-α-Acetamido-N-(2,6-difluorobenzyl)-2-furanacetamide] as the compound, how does the ED50 [1, 6] read?
**A.** The ED50 was 25 to 100 mg/kg.

**Q.** For `CC(=O)NC(C(=O)NCc1ccccc1)c1ccc(C)[nH]1` (racemic) [(D,L)-α-Acetamido-N-benzyl-2-(5-methylpyrrole)acetamide], which ED50 [1, 6] is on record?
**A.** The ED50 was 36.5 mg/kg.

**Q.** For `CC(=O)NC(C(=O)NCc1ccccc1)N1CCOCC1` (racemic) [(D,L)-2-Acetamido-N-benzyl-2-(1-morpholine)acetamide, reference compound], which ED50 [1, 6] is on record?
**A.** Its ED50 is 30 to 100 mg/kg.

**Q.** Which TD50 [4] does the source give for `CC(=O)NC(C(=O)NCc1cccc(F)c1)c1ccco1` (racemic) [(D,L)-α-Acetamido-N-(3-fluorobenzyl)-2-furanacetamide] here?
**A.** The TD50 was 136 mg/kg.

**Q.** And the ED50 [1, 6]?
**A.** Its ED50 is 13.3 mg/kg.

**Q.** With `C=CCC(NC(C)=O)C(=O)NCc1ccccc1` (racemic) [(D,L)-2-Acetamido-4-pentenoic Acid-N-benzylamide] as the compound, how does the ED50 [1, 6] read?
**A.** The ED50 was 33.6 mg/kg.

**Q.** Which results are given for `CC(=O)NC(C(=O)NCc1ccccc1)c1cc2ccccc2s1` (racemic) [(D,L)-α-Acetamido-N-benzyl-2-benzo[b]thiopheneacetamide]?
**A.** TD50 [4]: 100 to 300 mg/kg; ED50 [1, 6]: 100 to 300 mg/kg

**Q.** Which ED50 [1, 6] does the source give for `CCNC(NC(C)=O)C(=O)NCc1ccccc1` (racemic) [(D,L)-2-Acetamido-N-benzyl-2-(ethylamino)acetamide] here?
**A.** Its ED50 is 42.4 mg/kg.

**Q.** Which TD50 [4] does the source give for `CC(=O)NC(C(=O)NCc1ccccc1)c1ccco1` (racemic) [D,L-α-Acetamido-N-benzyl-2-furanacetamide] here?
**A.** The TD50 was 23.8 mg/kg.

**Q.** And the TD50 [2]?
**A.** Its TD50 is greater than 300 mg/kg.
